Test [1] relates to 3T3-L1 adipocytes. The test can be described thus: Lipogenesis in 3T3-L1 adipocytes (Oil Red O / BODIPY). It counts as cell-based, murine.
Protocol: Prior to experiments, cells were cultured in DMEM containing 10% FBS-HI added 50 units penicillin/ml and 50 μg streptomycin/ml, and maintained in log phase prior to experimental setup. Cells were grown in a 5% CO2 humidified incubator at 37° C. Components of the pre-confluent medium included (1) 10% FBS/DMEM containing 4.5 g glucose/L; (2) 50 U/ml penicillin; and (3) 50 μg/ml streptomycin. Growth medium was made by adding 50 ml of heat inactivated FBS and 5 ml of penicillin/streptomycin to 500 ml DMEM. This medium was stored at 4° C. Before use, the medium was warmed to 37° C. in a water bath.
3T3-T1 cells were seeded at an initial density of 6×10^4 cells/cm^2 in 24-well plates. For two days, the cells were allowed grow to reach confluence. Following confluence, the cells were forced to differentiate into adipocytes by the addition of differentiation medium; this medium consisted of (1) 10% FBS/DMEM (high glucose); (2) 0.5 mM methylisobutylxanthine; (3) 0.5 μM dexamethasone and (4) 10 μg/ml insulin (MDI medium). After three days, the medium was changed to post-differentiation medium consisting of 10 μg/ml insulin in 10% FBS/DMEM.
Whenever fresh media were added, fresh test material was also added.
Monolayer cells were washed with PBS (phosphate buffered saline, Mediatech) and fixed with 10% formaldehyde for ten minutes. Fixed cells were stained with an Oil Red O working solution of three parts 0.6% Oil Red O/isopropanol stock solution and two parts water for one hour and the excess stain was washed once with water. The resulting stained oil droplets were extracted from the cells with isopropanol and quantified by spectrophotometric analysis at 540 nm (MEL312e BIO-KINETICS READER, Bio-Tek Instruments, Winooski, Vt.).
Briefly, media were removed and cells were washed once with non-sterile PBS. […] After 15 min on an orbital shaker (DS-500, VWR Scientific Products, South Plainfield, N.J.) at ambient temperature, the cells were washed with 100 μl PBS followed by the addition of 100 μl PBS for reading for spectrofluorometric determination of BODIPY incorporation into the cells. […]
The subject of test [2] is 3T3-L1 adipocytes. The test can be described thus: Adiponectin secretion in LPS/3T3-L1 adipocytes. The note with it: at the concentration of maximum stimulation; NS = not significantly different from the LPS control. It counts as cell-based, murine.
Test [3] deals with 3T3-L1 adipocytes. The test can be described thus: Adiponectin secretion from TNFα-treated 3T3-L1 adipocytes. It counts as cell-based, murine. The note with it: for Concentration eliciting maximum adiponectin secretion: of the doses tested.
Protocol: 3T3-L1 cells were seeded at an initial density of 1×10^4 cells/cm^2 in 96-well plates. For two days, the cells were allowed grow to reach confluence. Following confluence, the cells were forced to differentiate into adipocytes by the addition of differentiation medium; this medium consisted of (1) 10% FBS/DMEM (high glucose); (2) 0.5 mM methylisobutylxanthine; (3) 0.5 μM dexamethasone and (4) 10 μg/ml insulin (MDI medium). From Day 3 through Day 5, the medium was changed to post-differentiation medium consisting of 10% FBS in DMEM. […] On Day 6, the supernatant medium was sampled for adiponectin determination.
Statistical Calculations and Interpretation—All assays were preformed in duplicate. […] Differences among the doses and test agents were determined using the Student's t-test without correction for multiple comparisons; the nominal five percent probability of a type I error was selected.
For test [4], the system named is 3T3-L1 adipocytes. Nature of the test: IL-6 secretion in LPS/3T3-L1 adipocytes. It is filed as cell-based, murine. Conditions: at the concentration of maximum inhibition, with 100 ng LPS/ml.
The nature of test [5]: Collagen induced rheumatoid arthritis murine model, arthritic index. It counts as in vivo, mouse. Conditions: 10 mg/kg.
Protocol: The mice were injected intradermally on day 0 with a mixture containing 100 μg of type II collagen and 100 μg of Mycobacterium tuberculosis in squalene. A booster injection was repeated on day 21. Mice were examined on days 22-27 for arthritic signs with nonresponding mice removed from the study.
Arthritic symptomology was assessed (scored 0-4) for each paw using a arthritic index as described below. Under this arthritic index 0=no visible signs; 1=edema and/or erythema: single digit; 2=edema and or erythema: two joints; 3=edema and or erythema: more than two joints; and 4=severe arthritis of the entire paw and digits associated with ankylosis and deformity.

Marks after values point to notes of the source that are not given here.

For `CC(C)CCC1=C(O)C(C(=O)C(C)C)=C(O)C(CCC(C)C)(CCC(C)C)C1=O` [hexahydrocolupulone], the “adipogenic / lipogenic response compared with controls” value in test [1] is listed as “failed to elicit a lipogenic response”.

`COc1ccc2c(c1)c(CC(=O)O)c(C)n2C(=O)c1ccc(Cl)cc1` [indomethacin]: the “% Stimulation (maximum stimulation of adiponectin secretion)” value in test [2] is listed as 9%. The “Concentration eliciting maximum adiponectin secretion” value in test [3] (2 ng TNFα/ml) stood at 1.25 µg/mL; in test [3] (10 ng TNFα/ml), 5.0 µg/mL. Also, in test [4], the “% Inhibition (maximum inhibition of IL-6 secretion)” value is recorded as 53* %.

Regarding `CCc1ccc(CCOc2ccc(CC3SC(=O)NC3=O)cc2)nc1` (centres unmarked) [pioglitazone], the “maximal adiponectin secretion, times the TNFα treatment” value in test [3] (10 ng TNFα/ml) was found to be 1.47. In addition, the “Concentration eliciting maximum adiponectin secretion over four doses” value in test [3] (10 ng TNFα/ml, Acacia catechu #5669 fractions) worked out at 1.25 µg/mL.

As to `C[C@]12C=CC(=O)C=C1CC[C@@H]1[C@@H]2[C@@H](O)C[C@@]2(C)[C@H]1CC[C@]2(O)C(=O)CO` [prednisolone], in test [5], the arthritic index entry is “Significant reductions”.

As for `Cc1c(C)c2c(c(C)c1O)CCC(C)(COc1ccc(CC3SC(=O)NC3=O)cc1)O2` (centres unmarked) [troglitazone], the “Concentration eliciting maximum adiponectin secretion” value in test [3] (10 ng TNFα/ml) was determined as 0.625 µg/mL.

Take `COc1cc(O)c(CC=C(C)C)c(O)c1C(=O)/C=C/c1ccc(O)cc1` [xanthohumol]: in test [1], the “adipogenic / lipogenic response compared with controls” value is “comparable to indomethacin and troglitazone”.

With Beta acids, the “adipogenic / lipogenic response compared with controls” value in test [1] is “comparable to indomethacin and troglitazone”.
